# Key:
# Adrenergic α1B = target: T1, Adrenergic α1B (Rattus norvegicus, UniProt P15823); assay: Receptor binding 203200
# T1 construct: Eurofins 203200; host or cells: crude membrane preparation
# Description: (§1) Radioligand binding to a panel of receptors was carried out by Eurofins on crude membrane preparations according to published procedures and by using appropriate reference standard (Eurofins, CVie 101 compound code PT #1207859, study #AB76416, quote #68407-1, for Cvie Therapeutics Limited, Taiwan (R.OC.) on Mar. 5, 2017). CVie 101 was tested at the concentration of 10 μM. No significant interaction was documented, except for Sodium Channel, site 2 from rat (cat #279510), where a significant response (≥50%) was noted (Table 7).
# Peptidase, Renin = target: T2, Peptidase, Renin (Homo sapiens, UniProt P00797); assay: Eurofins panel 164610; assay type: biochemical
# T2 construct: Eurofins 164610
# T2 sequence (P00797 67-406): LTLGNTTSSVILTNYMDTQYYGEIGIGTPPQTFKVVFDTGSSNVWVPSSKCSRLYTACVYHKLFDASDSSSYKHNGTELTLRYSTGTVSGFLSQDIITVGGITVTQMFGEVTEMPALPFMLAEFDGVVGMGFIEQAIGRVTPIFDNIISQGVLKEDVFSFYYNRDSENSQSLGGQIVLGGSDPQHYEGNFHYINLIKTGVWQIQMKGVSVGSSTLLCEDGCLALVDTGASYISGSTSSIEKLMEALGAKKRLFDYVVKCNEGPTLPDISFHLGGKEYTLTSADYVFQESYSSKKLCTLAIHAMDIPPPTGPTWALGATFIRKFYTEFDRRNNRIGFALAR
# Adrenergic α1A = target: T3, Adrenergic α1A (Rattus norvegicus, UniProt P43140); assay: Receptor binding 203100
# T3 construct: Eurofins 203100; host or cells: crude membrane preparation
# T3 sequence (P43140 whole entry): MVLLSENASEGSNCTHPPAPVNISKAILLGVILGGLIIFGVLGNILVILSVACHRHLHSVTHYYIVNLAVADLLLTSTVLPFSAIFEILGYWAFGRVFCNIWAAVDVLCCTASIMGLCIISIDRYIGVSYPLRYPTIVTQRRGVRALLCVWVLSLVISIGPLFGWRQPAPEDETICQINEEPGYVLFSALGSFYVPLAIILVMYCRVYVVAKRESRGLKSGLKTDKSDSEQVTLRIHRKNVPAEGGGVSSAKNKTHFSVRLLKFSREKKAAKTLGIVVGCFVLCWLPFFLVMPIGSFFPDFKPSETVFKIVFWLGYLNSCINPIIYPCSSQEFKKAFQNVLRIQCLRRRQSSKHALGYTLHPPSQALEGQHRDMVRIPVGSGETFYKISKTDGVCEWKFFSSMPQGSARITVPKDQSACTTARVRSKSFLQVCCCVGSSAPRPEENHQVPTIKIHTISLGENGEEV
# Description: as §1
# Aldosterone = target: T4, Aldosterone (Rattus norvegicus, UniProt P22199); assay: Receptor binding 204600
# T4 construct: Eurofins 204600
# T4 sequence (P22199 whole entry): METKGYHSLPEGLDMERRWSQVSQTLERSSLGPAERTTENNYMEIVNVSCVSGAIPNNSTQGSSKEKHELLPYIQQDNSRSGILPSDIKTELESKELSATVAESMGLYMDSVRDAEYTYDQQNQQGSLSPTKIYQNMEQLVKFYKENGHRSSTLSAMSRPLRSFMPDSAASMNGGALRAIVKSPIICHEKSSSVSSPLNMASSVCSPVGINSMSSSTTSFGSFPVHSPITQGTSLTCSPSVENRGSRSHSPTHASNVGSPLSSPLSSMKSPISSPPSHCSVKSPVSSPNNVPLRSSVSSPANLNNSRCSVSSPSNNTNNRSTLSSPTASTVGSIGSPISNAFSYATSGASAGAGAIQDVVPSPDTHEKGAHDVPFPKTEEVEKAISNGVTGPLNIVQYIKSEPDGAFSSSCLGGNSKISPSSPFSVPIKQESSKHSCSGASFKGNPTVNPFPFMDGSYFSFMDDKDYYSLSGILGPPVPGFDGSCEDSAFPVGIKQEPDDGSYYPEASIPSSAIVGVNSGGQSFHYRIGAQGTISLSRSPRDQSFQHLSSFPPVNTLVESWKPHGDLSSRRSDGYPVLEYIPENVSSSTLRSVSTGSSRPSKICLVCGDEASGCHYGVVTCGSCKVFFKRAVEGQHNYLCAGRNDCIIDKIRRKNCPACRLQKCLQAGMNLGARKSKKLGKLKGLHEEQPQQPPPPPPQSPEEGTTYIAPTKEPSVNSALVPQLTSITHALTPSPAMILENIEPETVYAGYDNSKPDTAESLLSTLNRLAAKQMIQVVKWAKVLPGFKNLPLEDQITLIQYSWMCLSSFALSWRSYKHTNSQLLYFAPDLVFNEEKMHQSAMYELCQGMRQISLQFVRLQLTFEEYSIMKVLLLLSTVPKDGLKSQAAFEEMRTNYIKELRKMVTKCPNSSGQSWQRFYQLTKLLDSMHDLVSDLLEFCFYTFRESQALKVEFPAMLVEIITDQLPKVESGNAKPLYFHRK
# Description: as §1
# Nicotinic Acetylcholine = assay: Receptor binding 258590; set-up: species or system human; conditions: 10 μM
# Description: as §1
# Muscarinic M5 = target: T5, Muscarinic M5 (Homo sapiens, UniProt P08912); assay: Receptor binding 253010
# T5 construct: Eurofins (contract assay) 253010
# T5 sequence (P08912 whole entry): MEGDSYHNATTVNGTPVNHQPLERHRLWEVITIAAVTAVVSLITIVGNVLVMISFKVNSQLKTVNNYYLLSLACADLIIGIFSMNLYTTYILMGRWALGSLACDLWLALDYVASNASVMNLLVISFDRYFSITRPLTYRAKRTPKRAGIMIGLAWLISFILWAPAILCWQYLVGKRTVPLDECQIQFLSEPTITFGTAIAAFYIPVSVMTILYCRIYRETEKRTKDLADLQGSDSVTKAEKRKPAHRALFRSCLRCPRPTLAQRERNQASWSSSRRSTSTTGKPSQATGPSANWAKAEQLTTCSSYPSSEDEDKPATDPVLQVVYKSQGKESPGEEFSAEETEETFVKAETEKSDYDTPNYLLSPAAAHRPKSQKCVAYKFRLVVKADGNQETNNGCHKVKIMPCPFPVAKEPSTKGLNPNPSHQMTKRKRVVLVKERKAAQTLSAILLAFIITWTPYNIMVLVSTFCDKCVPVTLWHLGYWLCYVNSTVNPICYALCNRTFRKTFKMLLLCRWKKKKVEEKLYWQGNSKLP
# Description: as §1
# Imidazoline I2, Central = assay: Receptor binding 241000; set-up: species or system rat; conditions: 10 μM
# Description: as §1
# STZ diabetic rats = assay: Haemodynamics in streptozotocin diabetic rats (echocardiography); assay type: in vivo, rat; conditions: 20 mg/kg os, after treatment, mean ± SD, n = 12
# Description: Sprague Dawley male rats (150-175 g) were made diabetic by a single injection into the tail vein of a solution of streptozotocin (STZ, 50 mg/kg, Sigma-Aldrich), freshly prepared in 0.1 M sodium citrate buffer, pH 4.5. Control rats received citrate buffer. Fasting glycaemia was measured after 1 week and rats with values >400 mg/dl were considered diabetic.
# Eight-nine weeks after STZ injection, rats were submitted to transthoracic echocardiographic and Doppler evaluation performed under pentobarbital anesthesia. Two-dimensionally guided M-mode recordings were used to obtain short-axis measurements of left ventricular end-diastolic diameter (LVEDD), left ventricular end-systolic diameter (LVESD), posterior (PW) and septal (SW) diastolic wall thickness according to the American Society of Echocardiography guidelines (Lang R M et al. Eur J Echocardiography 2006; 7:79-108). Fractional shortening was calculated as FS=(LVEDD-LVESD)/LVEDD. Relative wall thickness was calculated as PWTd+IVSTd/LVEDD.
# Mitral inflow was measured by pulsed Doppler at the tips of mitral leaflets from an apical 4-chamber view to obtain early and late filling velocities (E, A) and deceleration time of early filling velocity (DT). The deceleration slope was calculated as E/DT ratio. The mitral deceleration index was calculated as DT/E ratio.
# Tissue Doppler Imaging (TDI) was evaluated from the apical 4-chamber view to record septal mitral annular movements, i.e., peak myocardial systolic (s′) and early and late diastolic velocity (e′ and a′).
# Compound CVie 101 was orally administered to STZ injected rats at the dose of 20 mg/kg and echocardiographic parameters were measured after 1 h.
# [1] = system: guinea pig isolated cardiomyocytes; assay: Action potential measurements in isolated ventricular cardiomyocytes; assay type: cell-based; conditions: 100 nM
# Description: The compounds were characterized for their effect on (i) SR Ca^2+ uptake function, (ii) action potential (AP) in myocytes freshly dissociated from guinea-pig ventricles by retrograde coronary perfusion with enzymatic solution (Rocchetti M et al. J Pharmacol Exper Therap 2005; 313(1):207-215).
# The action potential (AP) contour provides a first-line estimate of the integrated function of membrane ion channels and its changes may disclose ancillary actions, potentially resulting in untoward effects of the compound. To increase sensitivity of the AP contour as a reporter, effects on the rate-dependency of AP parameters were also tested, thus providing a multiparametric (more stringent) approach.
# APs were recorded in normal Tyrode's solution at 36.5° C. The following parameters were measured at 4 stimulation rates (0.5-1-2-4 Hz): diastolic membrane potential (Edlast), maximum depolarization velocity (dV/dtmax), action potential duration (APD at 90%, 50% and 20% of repolarization), time constant (τ) of APD adaptation after a step change in stimulation rate. Short term APD variability (STV) during steady-state pacing, an index of repolarization stability, was measured as the sum of absolute ortogonal deviations from the identity line in the APDnfAPDn+1 plot (Poincare plot) (Altomare C et al, Circulation A&E 2015; 8:1265-1275).
# GABAA, Muscimol, Central = assay: Receptor binding 226500; set-up: species or system rat; conditions: 10 μM
# Description: as §1
# Angiotensin AT2 = target: T6, Angiotensin AT2 (Homo sapiens, UniProt P50052); assay: Receptor binding 210120
# T6 construct: Eurofins 210120; host or cells: crude membrane preparation
# T6 sequence (P50052 whole entry): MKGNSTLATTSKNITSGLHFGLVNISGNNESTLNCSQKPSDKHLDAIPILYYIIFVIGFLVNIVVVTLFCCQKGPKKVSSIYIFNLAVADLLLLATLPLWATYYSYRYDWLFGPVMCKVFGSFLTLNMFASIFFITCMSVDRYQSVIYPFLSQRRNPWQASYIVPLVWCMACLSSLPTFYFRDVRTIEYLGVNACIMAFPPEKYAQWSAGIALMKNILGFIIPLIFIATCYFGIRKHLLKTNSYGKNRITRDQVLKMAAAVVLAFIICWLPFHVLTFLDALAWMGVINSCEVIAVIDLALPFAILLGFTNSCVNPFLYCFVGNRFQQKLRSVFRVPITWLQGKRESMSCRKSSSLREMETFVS
# Description: as §1
# [2] = Acute toxicity (LD50) in mouse; conditions: Albino Swiss CD-1, in vivo, single administration
# Description: 194. Acute toxicity has been determined in the mouse (Albino Swiss CD-1, body weight 30 g). Mice were orally treated, or intravenously injected, with single administration of increasing doses of the test substance to identify the dose causing 50% mortality. Mortality occurred within 30 min after the administration and survival after 24 h. The acute toxicity (LD50) was then assessed.
# The acute toxicity of the tested compound CVie 101 has been determined in the mouse (Albino Swiss CD-1, body weight 30 g). CVie 101 has been orally administered or intravenously injected at increasing doses to identify the dose causing 50% mortality. Mortality occurred within 30 min after the administration and survival after 24 h.
# [3] = rats, study i.v. 1 mg/kg and os 10 mg/kg, mean
# T1 sequence (P15823 whole entry): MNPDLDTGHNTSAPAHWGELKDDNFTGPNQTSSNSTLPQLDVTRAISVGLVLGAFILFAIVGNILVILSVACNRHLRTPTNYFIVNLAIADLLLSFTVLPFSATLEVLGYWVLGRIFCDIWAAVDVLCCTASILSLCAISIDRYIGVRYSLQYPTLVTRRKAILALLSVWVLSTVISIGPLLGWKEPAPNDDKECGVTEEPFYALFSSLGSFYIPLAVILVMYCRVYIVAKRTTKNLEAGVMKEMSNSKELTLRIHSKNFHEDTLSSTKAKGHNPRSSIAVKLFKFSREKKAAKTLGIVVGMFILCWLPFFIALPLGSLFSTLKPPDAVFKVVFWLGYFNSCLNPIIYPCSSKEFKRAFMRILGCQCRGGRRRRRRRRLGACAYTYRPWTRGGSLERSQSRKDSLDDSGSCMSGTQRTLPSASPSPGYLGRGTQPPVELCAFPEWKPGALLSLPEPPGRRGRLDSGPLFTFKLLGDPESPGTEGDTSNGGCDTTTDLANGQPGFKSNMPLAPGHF
compound,measurement,setting,value
"C[C@]12CC[C@H](O)C[C@H]1CCC1C2CC[C@]2(C)[C@@H](c3c[nH]cn3)CC[C@]12O (stereo partly drawn) [CVie 101, 3β-hydroxy-5β-10β-methyl-13β-methyl-14β-hydroxy-17β-(imidazol-4-yl)androstane]",inhibition at 10 µM,Adrenergic α1B,0%
same,inhibition at 10 µM,"Peptidase, Renin",3%
same,inhibition at 10 µM,Adrenergic α1A,1%
same,inhibition at 10 µM,Aldosterone,6%
same,% inhib,Nicotinic Acetylcholine,2%
same,inhibition at 10 µM,Muscarinic M5,21%
same,% inhib,"Imidazoline I2, Central",25%
same,A (late filling velocity of mitral inflow),STZ diabetic rats,0.76 ± 0.17 m/s
same,A′ (TDI late relaxation velocity),STZ diabetic rats,28.7 ± 6.6 cm/s
same,CO (cardiac output),STZ diabetic rats,219.0 ± 76.7 mL/min
same,DT (deceleration time of E wave),STZ diabetic rats,47.7 ± 4.8 ms
same,DT/E (mitral deceleration index),STZ diabetic rats,51.0 ± 10.2 ms·s/m
same,E (early filling velocity of mitral inflow),STZ diabetic rats,0.96 ± 0.14 m/s
same,E/A (index of LV function),STZ diabetic rats,1.29 ± 0.22
same,E/DT (deceleration slope),STZ diabetic rats,20.3 ± 4.1 m/s2
same,E/e′ (index of LV filling pressure),STZ diabetic rats,38.0 ± 4.9
same,E′ (TDI early relaxation velocity),STZ diabetic rats,25.2 ± 1.9 cm/s
same,FS (fractional shortening),STZ diabetic rats,45.1 ± 3.4 %
same,HR (heart rate),STZ diabetic rats,262 ± 48.1 beat/min
same,SV (stroke volume),STZ diabetic rats,0.82 ± 0.21 ml/beat
same,S′ (TDI contraction velocity),STZ diabetic rats,23.8 ± 3.6 cm/s
same,short term APD variability (STV),"[1]; 0.5-1-2-4 Hz separately or pooled, FIG. 3",unaffected
same,diastolic membrane potential (Ediast),"[1]; 0.5-1-2-4 Hz, FIG. 2A",did not affect
same,maximum depolarization velocity (dV/dtmax),[1]; FIG. 2B,did not affect
same,"action potential duration (APD at 90%, 50% and 20% of repolarization) and its cycle-length dependency",[1]; FIG. 2C,did not affect
same,time constant of APD adaptation after a step change in cycle length,[1]; FIG. 2D,not shortened
same,% inhib,"GABAA, Muscimol, Central",−9%
same,inhibition at 10 µM,Angiotensin AT2,-1%
same,AUC(0-inf),"Bioavailability in rats; rat, in vivo, 10 mg/kg",2490 ng·h/mL
same,AUC(0-t),"Bioavailability in rats; rat, in vivo, 10 mg/kg",2430 ng·h/mL
same,Cmax,"Bioavailability in rats; rat, in vivo, 10 mg/kg",1020 ng/mL
same,MRT last,"Bioavailability in rats; rat, in vivo, 10 mg/kg",2.03 h
same,Tmax,"Bioavailability in rats; rat, in vivo, 10 mg/kg",0.5 h
same,half-life,"Bioavailability in rats; rat, in vivo, 10 mg/kg",2.21 h
same,bioavailability,"Bioavailability in rats; rat, in vivo, po, 10 mg/kg",66.3%
same,Cl_F_pred,Bioavailability in rats; [3],81.3 mL/min/kg
same,Vz_F_pred,Bioavailability in rats; [3],14.29 L/kg
same,LD50 at 24 h,[2]; iv,20 mg/kg
same,LD50 at 24 h,"[2]; oral, os",350 mg/kg

# Source: patent US11730746B2, “17beta-heterocyclyl-digitalis like compounds for the treatment of heart failure” (priority 2018, dated 2023)
